According to US5162523A, “Cephalosporin antibacterial compounds” (Hoffmann-La Roche Inc., priority 1990, dated 1992):
Where a name gives a salt, the structure may show the parent alone.

Assay: Stability of the product (observation during preparation)
Assay type: physicochemical
Conditions: observed during preparation and purification

stability of the product: very unstable
SMILES: CCn1cc(C(=O)O)c(=O)c2cc(F)c(N3CCN(C=N[C@@H]4C(=O)N5[C@@H]4SC(C)(C)[C@@H]5C(=O)O)CC3)nc21 [Compound H, [2S-(2α,5α,6β)]-7-[4-[[(2-Carboxy-2,3-dimethyl-7-oxo-4-thia-1-azabicyclo[3.2.0]-hept-6-yl)imino]methyl]-1-piperazinyl]-1-ethyl-6-fluoro-1,4-dihydro-4-oxo-1,8-naphthyridine-carboxylic acid disodium salt]
